Results: the supplement of paper PMC12076712

Assays:
Assay in all cases: pIC50, kinobeads binding competition
TNIK = TNIK (UniProt Q9UKE5)
Outline: (§1)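 Fold changes relative to vehicle, from biological duplicates, were fitted with logistic dose-response models in the R drc package to give pIC50. These fold changes came from TMT10 LC-MS/MS quantification of digested Kinobeads-bound proteins. Compound was applied at nine concentrations (top 30 μM) either to live Jurkat cells in 1:4 steps for 60 min at 37 °C before lysis, or to Jurkat lysate or a 1:1:1:1 HEK293/K-562/HepG2/placenta lysate mix in 1:5 steps for 60 min at 4 °C.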

CDK10 = CDK10 (UniProt Q15131)
Outline: as §1

SNRK = target: T1, SNRK (UniProt Q9NRH2)
T1 sequence (whole entry): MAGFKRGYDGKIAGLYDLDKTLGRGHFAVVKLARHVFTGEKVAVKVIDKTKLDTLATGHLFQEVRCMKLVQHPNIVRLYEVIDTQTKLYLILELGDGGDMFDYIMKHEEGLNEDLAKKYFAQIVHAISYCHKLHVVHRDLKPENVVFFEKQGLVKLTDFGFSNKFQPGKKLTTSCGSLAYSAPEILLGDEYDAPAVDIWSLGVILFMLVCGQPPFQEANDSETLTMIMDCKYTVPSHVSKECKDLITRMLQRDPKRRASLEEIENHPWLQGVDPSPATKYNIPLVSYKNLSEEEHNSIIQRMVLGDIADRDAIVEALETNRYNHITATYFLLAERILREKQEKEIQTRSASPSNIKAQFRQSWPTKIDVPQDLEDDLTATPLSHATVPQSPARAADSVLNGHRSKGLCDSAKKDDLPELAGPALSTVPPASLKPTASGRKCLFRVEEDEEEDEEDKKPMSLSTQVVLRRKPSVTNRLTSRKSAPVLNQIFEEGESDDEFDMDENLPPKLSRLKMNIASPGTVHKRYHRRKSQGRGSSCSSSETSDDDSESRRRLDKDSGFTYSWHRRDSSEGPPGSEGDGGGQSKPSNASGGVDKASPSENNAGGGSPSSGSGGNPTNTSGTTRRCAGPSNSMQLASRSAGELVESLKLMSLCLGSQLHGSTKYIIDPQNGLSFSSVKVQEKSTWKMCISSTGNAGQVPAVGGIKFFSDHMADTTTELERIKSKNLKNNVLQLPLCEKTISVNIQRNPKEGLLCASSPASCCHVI
Outline: as §1

CLK2 = CLK2 (UniProt P49760)
Outline: as §1

UniProt Q9UQB9 = target: T2, UniProt Q9UQB9
T2 sequence (whole entry): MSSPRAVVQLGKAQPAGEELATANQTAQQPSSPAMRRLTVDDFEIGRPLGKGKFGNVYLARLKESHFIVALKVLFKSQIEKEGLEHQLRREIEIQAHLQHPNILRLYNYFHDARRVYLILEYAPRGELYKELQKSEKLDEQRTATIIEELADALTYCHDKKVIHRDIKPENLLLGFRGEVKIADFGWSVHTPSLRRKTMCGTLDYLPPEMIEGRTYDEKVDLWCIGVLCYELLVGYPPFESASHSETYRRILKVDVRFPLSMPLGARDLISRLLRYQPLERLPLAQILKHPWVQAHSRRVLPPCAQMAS
Outline: as §1

UniProt Q9HCP0 = target: UniProt Q9HCP0
Outline: as §1

RNASEL = RNASEL (UniProt Q05823); conditions: cell material: Jurkat cells
Outline: as §1

UniProt Q14004 = target: UniProt Q14004
Outline: as §1

UniProt P45984 = target: UniProt P45984
Outline: as §1

PRPF4B = PRPF4B (UniProt Q13523); conditions: cell material: Lysate mix
Outline: as §1

CSF1R = CSF1R (UniProt P07333); conditions: cell material: Lysate mix
Outline: as §1

UniProt Q15303 = conditions: cell material: Lysate mix
Outline: as §1

RPS6KA4 = RPS6KA4 (UniProt O75676)
Outline: as §1

STRADA = target: T3, STRADA (UniProt Q7RTN6)
T3 sequence (whole entry): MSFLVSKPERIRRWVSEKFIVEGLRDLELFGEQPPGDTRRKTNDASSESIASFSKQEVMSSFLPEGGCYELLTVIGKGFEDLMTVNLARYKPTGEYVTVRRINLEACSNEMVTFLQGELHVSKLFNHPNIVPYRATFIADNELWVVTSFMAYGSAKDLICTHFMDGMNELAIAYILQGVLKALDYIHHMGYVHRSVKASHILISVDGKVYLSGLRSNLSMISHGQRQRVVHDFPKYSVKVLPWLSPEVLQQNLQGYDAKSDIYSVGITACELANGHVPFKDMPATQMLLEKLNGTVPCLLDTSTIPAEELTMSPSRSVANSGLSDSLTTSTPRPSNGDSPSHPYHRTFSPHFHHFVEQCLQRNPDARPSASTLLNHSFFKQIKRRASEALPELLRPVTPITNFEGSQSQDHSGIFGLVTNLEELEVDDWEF
Outline: as §1

CSF1R, sequence (P07333 whole entry): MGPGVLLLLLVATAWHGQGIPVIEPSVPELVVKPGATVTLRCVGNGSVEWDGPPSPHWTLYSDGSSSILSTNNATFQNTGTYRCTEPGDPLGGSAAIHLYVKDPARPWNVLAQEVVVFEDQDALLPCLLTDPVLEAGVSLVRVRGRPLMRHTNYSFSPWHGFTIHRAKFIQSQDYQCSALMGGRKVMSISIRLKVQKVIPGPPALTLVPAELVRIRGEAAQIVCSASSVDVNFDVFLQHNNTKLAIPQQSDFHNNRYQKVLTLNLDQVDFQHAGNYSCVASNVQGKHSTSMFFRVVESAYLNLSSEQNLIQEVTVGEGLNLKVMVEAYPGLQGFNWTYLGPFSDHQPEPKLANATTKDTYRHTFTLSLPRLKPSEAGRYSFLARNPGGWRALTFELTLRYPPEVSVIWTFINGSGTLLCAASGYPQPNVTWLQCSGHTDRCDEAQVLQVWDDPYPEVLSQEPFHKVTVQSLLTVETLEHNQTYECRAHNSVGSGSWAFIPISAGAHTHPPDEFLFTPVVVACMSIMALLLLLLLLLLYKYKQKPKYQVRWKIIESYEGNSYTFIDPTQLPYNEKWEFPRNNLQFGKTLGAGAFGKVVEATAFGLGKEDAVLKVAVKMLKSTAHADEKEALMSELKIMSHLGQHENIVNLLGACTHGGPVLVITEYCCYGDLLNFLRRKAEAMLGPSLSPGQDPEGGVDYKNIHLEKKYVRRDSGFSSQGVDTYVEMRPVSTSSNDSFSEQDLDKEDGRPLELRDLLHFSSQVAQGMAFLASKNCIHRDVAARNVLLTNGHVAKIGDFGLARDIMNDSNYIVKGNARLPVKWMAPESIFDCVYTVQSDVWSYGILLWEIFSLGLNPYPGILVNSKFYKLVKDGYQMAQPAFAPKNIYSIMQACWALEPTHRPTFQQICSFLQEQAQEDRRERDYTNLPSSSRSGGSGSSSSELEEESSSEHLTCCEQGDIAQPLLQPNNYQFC
PRPF4B, sequence (Q13523 whole entry, looked up): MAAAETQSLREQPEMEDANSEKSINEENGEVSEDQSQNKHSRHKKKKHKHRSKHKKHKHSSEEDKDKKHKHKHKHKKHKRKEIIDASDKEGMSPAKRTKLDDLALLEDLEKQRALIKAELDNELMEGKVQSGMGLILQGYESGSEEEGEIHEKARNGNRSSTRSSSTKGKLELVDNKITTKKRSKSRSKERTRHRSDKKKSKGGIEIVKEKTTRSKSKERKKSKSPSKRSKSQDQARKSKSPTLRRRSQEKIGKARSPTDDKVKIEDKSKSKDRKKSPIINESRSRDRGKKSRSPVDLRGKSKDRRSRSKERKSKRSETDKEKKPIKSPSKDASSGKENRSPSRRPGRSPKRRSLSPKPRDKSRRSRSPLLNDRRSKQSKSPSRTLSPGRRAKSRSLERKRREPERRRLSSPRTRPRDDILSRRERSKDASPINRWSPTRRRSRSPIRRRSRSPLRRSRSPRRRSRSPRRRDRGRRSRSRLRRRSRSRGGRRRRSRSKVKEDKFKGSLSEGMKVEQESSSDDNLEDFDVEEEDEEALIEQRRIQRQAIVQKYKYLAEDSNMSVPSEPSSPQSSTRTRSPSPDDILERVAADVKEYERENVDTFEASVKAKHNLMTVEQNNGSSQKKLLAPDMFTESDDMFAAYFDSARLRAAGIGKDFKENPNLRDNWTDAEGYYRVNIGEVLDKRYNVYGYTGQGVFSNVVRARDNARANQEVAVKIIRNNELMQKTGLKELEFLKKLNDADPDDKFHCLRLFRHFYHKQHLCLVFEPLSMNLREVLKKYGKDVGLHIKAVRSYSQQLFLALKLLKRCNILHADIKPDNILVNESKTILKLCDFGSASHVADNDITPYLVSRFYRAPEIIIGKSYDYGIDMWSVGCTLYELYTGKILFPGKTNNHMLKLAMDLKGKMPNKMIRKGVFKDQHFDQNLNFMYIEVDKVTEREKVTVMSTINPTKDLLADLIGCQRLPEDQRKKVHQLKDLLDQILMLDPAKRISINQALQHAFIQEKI
UniProt Q15303, sequence (Q15303 whole entry): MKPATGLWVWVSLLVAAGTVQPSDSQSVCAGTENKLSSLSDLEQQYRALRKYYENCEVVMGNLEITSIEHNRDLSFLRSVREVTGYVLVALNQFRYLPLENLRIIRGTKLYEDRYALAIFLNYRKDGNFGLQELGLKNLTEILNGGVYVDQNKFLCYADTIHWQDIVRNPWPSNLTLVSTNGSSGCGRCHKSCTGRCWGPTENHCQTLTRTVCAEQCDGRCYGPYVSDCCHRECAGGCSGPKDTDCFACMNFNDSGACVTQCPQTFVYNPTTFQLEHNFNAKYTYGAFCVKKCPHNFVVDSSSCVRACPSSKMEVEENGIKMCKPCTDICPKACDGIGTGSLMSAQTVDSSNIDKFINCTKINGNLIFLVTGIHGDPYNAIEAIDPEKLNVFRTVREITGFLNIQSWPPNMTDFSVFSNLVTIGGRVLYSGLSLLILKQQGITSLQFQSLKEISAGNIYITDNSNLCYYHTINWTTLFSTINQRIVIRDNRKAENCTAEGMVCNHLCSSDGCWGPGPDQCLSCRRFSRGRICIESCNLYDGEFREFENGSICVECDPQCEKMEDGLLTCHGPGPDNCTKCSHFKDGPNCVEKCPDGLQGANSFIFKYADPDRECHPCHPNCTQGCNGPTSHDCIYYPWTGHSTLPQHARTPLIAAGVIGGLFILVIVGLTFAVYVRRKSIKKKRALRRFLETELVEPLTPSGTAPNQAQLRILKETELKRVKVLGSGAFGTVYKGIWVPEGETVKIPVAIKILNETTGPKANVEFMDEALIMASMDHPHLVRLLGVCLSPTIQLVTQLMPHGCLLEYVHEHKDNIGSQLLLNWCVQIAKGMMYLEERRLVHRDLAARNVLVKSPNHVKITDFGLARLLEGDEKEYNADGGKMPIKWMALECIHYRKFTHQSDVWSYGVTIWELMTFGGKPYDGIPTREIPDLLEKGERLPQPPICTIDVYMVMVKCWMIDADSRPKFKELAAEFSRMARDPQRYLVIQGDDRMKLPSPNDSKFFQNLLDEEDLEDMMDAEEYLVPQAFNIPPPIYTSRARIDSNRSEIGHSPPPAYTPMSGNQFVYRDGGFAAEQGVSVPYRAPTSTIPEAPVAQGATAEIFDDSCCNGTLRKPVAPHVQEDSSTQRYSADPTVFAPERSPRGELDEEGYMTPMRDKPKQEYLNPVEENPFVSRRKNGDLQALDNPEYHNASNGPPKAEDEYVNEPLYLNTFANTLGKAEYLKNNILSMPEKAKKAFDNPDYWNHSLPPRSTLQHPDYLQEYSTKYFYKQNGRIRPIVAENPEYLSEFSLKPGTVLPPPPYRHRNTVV
CDK10, sequence (Q15131 whole entry): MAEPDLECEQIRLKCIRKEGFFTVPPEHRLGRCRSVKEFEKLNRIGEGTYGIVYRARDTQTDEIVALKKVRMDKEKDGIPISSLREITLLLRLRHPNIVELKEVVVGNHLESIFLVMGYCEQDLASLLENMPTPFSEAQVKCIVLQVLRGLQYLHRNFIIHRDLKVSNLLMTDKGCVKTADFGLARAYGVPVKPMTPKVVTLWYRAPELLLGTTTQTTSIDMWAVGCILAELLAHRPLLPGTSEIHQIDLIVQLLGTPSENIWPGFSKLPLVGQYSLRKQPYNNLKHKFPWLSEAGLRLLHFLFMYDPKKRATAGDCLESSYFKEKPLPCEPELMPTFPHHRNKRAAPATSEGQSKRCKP
CLK2, sequence (P49760 whole entry, looked up): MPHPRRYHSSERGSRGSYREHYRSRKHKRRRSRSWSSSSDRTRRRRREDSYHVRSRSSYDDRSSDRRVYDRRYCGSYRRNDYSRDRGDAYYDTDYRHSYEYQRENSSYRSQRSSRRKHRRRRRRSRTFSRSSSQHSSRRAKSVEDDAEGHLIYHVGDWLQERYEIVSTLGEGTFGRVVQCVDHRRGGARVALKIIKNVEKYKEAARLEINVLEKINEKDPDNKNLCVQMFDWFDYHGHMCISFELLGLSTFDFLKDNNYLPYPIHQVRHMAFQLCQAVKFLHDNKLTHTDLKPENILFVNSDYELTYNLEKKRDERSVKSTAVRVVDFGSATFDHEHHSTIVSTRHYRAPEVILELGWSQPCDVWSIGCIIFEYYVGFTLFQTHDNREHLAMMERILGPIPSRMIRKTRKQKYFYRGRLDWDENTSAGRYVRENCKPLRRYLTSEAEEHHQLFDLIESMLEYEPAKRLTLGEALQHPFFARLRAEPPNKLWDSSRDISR
UniProt P45984, sequence (P45984 whole entry, looked up): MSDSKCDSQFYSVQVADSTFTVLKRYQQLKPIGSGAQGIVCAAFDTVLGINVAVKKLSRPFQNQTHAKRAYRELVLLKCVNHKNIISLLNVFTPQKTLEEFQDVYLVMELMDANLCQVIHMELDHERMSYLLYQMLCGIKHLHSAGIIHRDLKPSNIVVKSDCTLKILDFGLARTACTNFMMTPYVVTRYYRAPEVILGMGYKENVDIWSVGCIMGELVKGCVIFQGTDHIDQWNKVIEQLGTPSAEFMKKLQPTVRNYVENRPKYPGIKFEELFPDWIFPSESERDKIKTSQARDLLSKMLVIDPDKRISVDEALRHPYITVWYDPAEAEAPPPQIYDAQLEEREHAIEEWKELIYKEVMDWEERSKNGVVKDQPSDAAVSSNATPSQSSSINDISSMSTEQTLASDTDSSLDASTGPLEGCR
UniProt Q9HCP0, sequence (Q9HCP0 whole entry, looked up): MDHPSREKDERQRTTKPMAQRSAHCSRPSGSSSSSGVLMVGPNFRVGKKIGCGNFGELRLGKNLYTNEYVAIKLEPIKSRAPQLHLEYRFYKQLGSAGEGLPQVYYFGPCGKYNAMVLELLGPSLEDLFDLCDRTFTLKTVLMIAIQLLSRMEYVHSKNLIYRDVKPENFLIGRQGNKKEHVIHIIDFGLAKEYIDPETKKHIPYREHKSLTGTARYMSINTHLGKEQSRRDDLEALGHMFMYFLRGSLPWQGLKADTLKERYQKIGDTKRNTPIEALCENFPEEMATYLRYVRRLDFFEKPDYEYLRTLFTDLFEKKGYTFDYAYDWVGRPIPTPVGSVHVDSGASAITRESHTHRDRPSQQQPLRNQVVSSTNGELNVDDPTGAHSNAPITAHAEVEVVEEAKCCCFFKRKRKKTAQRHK

SMILES | pIC50 (TNIK; cell material: Jurkat cells) | pIC50 (TNIK; cell material: Jurkat lysate) | pIC50 (TNIK; cell material: Lysate mix) | pIC50 (CDK10; cell material: Jurkat cells) | pIC50 (CDK10; cell material: Lysate mix) | pIC50 (SNRK; cell material: Jurkat lysate) | pIC50 (CLK2; cell material: Jurkat cells) | pIC50 (CLK2; cell material: Jurkat lysate) | pIC50 (CLK2; cell material: Lysate mix) | pIC50 (UniProt Q9UQB9; cell material: Lysate mix) | pIC50 (UniProt Q9HCP0; cell material: Jurkat lysate) | pIC50 (UniProt Q9HCP0; cell material: Lysate mix) | pIC50 (RNASEL) | pIC50 (UniProt Q14004; cell material: Jurkat cells) | pIC50 (UniProt Q14004; cell material: Jurkat lysate) | pIC50 (UniProt Q14004; cell material: Lysate mix) | pIC50 (UniProt P45984; cell material: Jurkat cells) | pIC50 (UniProt P45984; cell material: Jurkat lysate) | pIC50 (PRPF4B) | pIC50 (CSF1R) | pIC50 (UniProt Q15303) | pIC50 (RPS6KA4; cell material: Jurkat cells) | pIC50 (RPS6KA4; cell material: Jurkat lysate) | pIC50 (RPS6KA4; cell material: Lysate mix) | pIC50 (STRADA; cell material: Jurkat cells) | pIC50 (STRADA; cell material: Jurkat lysate) | pIC50 (STRADA; cell material: Lysate mix) | pIC50 (UniProt P45984; cell material: Lysate mix) | pIC50 (CDK10; cell material: Jurkat lysate) | pIC50 (SNRK; cell material: Jurkat cells) | pIC50 (UniProt Q9UQB9; cell material: Jurkat lysate) | pIC50 (UniProt Q9HCP0; cell material: Jurkat cells)
O=C(NCCNC(=O)c1cc(Nc2cc(C3CC3)[nH]n2)nc(N2CCN(Cc3ccc(S(=O)(=O)F)cc3)CC2)n1)OC1CC/C=C/CCC1 (stereo not given) | 5.6 | < 4.52 | < 4.52 | 6.06 | < 4.52 | < 4.52 | 5.92 | < 4.52 | < 4.52 | 4.88 | < 4.52 | < 4.52 | < 4.52 | 6.02 | < 4.52 | < 4.52 | 5.7 | < 4.52 | < 4.52 | < 4.52 | < 4.52 | 5.8 | < 4.52 | < 4.52 | 5.78 | < 4.52 | < 4.52 |  |  |  |  | 
Cc1cc(Nc2cc(C(=O)NCCNC(=O)OC3CC/C=C/CCC3)nc(N3CCN(Cc4ccc(S(=O)(=O)F)cc4)CC3)n2)n[nH]1 (stereo not given) |  |  | < 4.52 |  | < 4.52 |  |  |  |  | 4.7 |  | < 4.52 |  |  |  | < 4.52 |  |  | < 4.52 | < 4.52 | < 4.52 |  |  | < 4.52 |  |  | < 4.52 |  |  |  |  | 
CCNC(=O)c1cc(Nc2cc(C3CC3)[nH]n2)nc(N2CCN(Cc3ccc(S(=O)(=O)F)cc3)CC2)n1 |  |  |  |  | 5.29 |  |  |  | 5.55 | 5.26 |  |  |  |  |  |  |  |  | 5.12 | < 4.52 | 4.96 |  |  | 5.34 |  |  | 5.29 | 5.62 |  |  |  | 
CCNC(=O)c1cc(Nc2cc(C)[nH]n2)nc(N2CCN(Cc3ccc(S(=O)(=O)F)cc3)CC2)n1 |  |  | < 4.52 |  |  |  |  |  |  | 5.64 |  | < 4.52 |  |  |  | < 4.52 |  |  |  | < 4.52 | 5.04 |  |  |  |  |  |  | 5.2 |  |  |  | 
C#CCNC(=O)c1cc(Nc2cc(C3CC3)[nH]n2)nc(N2CCN(Cc3ccc(S(=O)(=O)F)cc3)CC2)n1 |  | < 4.52 | 5.27 | 6.16 | 5.82 | < 4.52 | 6.11 | 5.57 |  | 5.81 | < 4.52 |  | < 4.52 | 6.19 | < 4.52 |  | 5.92 | 5.22 | < 4.52 | < 4.52 |  | 5.84 | 4.83 | 5.56 | 5.99 | 5.36 | 5.7 | 5.72 | 6.04 | 5.47 | 5.48 | 5.12
C#CCNC(=O)c1cc(Nc2cc(C)[nH]n2)nc(N2CCN(Cc3ccc(S(=O)(=O)F)cc3)CC2)n1 |  |  |  |  |  |  |  |  |  |  |  | < 4.52 |  |  |  | < 4.52 |  |  |  |  | 4.99 |  |  | 4.84 |  |  |  | 5.34 |  |  |  | 
